In ChEMBL document CHEMBL5120822, “Inhibition of the P2X7/NLRP3 Inflammasome Signaling Pathway by Deacetylgedunin from Toona sinensis” (J Nat Prod, 2022):
Calls of active or inactive are those of the source. The rule behind the calls is not given here.

Key:
THP-1 [1] = assay: Cytotoxicity against human THP-1 cells derived macrophage assessed as reduction in cell viability upto 40 uM incubated for 24 hrs by CCK-8 assay; assay type: toxicity, cell-based; conditions: thp-1, 24 h
J774.1 = assay: Cytotoxicity against mouse J774.1 cells derived macrophage assessed as reduction in cell viability upto 40 uM incubated for 24 hrs by CCK-8 assay; assay type: toxicity, cell-based; conditions: j774.1, 24 h
THP-1 [2] = assay: Antiinflammatory activity against PMA-differentiated human THP-1 cells assessed as reduction in IL-1beta level at 20 uM incubated for 1 hrs followed by LPS stimulation for 12 hrs and ATP addition for 0.5 hrs by ELISA; assay type: functional, cell-based; conditions: time 13.5 hrs
RAW264.7 [3] = assay: Cytotoxicity against mouse RAW264.7 cells derived macrophage assessed as reduction in cell viability upto 40 uM incubated for 24 hrs by CCK-8 assay; assay type: toxicity, cell-based; conditions: raw264.7, 24 h
RAW264.7 [4] = assay: Antiinflammatory activity in mouse RAW264.7 assessed as inhibition of LPS-induced NO production incubated for 1 hrs followed by LPS stimulation for 18 hrs by Griess reagent based assay; assay type: functional, cell-based

Structure (SMILES) | Activity (THP-1 [1]) | Activity (J774.1) | Activity (THP-1 [2]) | Activity (RAW264.7 [3]) | IC50 (RAW264.7 [4]) [µM]
CC(=O)O[C@@H]1C[C@H]2C(C)(C)C(=O)C=C[C@]2(C)[C@H]2CC[C@@]3(C)[C@@H](c4ccoc4)OC(=O)[C@H]4O[C@]43[C@@]21C | Toxic | Toxic | Active | Toxic | 8.85
CC1(C)C(=O)C=C[C@]2(C)[C@H]3CC[C@@]4(C)[C@H](c5ccoc5)OC(=O)[C@H]5O[C@]54[C@]3(C)C(=O)C[C@@H]12 [DEACETOXY-7-OXOGEDUNIN] | Toxic | – | Active | Toxic | 9.46
